From US20230365592A1 (Agios Pharmaceuticals, Inc., priority 2022, published 2023)
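Also: after compound treatment, cells received sepiapterin plus isotope-labelled Phenylalanine for 4 hours, then labelled Tyrosine in the medium was quantified, 10-point 2-fold dilution series run in duplicate.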

These compounds were tested against T1, human PAH with the R408W mutation (Homo sapiens, UniProt P00439, R408W) (assay: Cell Based Phenylalanine Flux Assay). Details: A375 cells expressing R408W PAH; 24 hrs with compound, then 20 µM sepiapterin and 800 µM 13C9,15N-Phenylalanine for 4 hours; 13C-Tyrosine by LC-MS; average where tested multiple times; read-out: AC50.
T1 construct: expressed in transfected cells
T1 sequence (P00439 1-452 R408W): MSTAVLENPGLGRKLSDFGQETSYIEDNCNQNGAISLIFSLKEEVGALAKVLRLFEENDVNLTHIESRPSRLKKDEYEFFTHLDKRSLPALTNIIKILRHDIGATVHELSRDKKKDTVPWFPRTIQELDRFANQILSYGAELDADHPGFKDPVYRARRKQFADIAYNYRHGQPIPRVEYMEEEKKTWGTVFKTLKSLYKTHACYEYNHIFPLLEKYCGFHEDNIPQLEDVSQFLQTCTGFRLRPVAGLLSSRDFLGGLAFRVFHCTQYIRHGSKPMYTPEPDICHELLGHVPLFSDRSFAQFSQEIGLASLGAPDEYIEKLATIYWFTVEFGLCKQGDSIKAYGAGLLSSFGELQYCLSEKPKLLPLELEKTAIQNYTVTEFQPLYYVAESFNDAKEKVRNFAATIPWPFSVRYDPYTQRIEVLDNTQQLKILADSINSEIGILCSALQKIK
Method: Compounds were resuspended in DMSO, and 2-fold serial dilutions were performed to generate a 10-point dose curve. Compounds were added to plated cells in a total volume of 100 µl, and a final DMSO concentration of 0.5%. Each compound was tested in duplicate. Following compound addition, cells were placed in a 5% CO2, 37° C. tissue culture incubator for 24 hrs. After the incubation period, 20 µM sepiapterin and 800 µM 13C9,15N-Phenylalanine were added. After 4 hours, cell media was removed. An aliquot of 10 µl of cell media was combined with 200 µl of extraction buffer (80% acetonitrile/20% H2O) for each well. Determination of ^13C-Tyrosine concentration was assessed by liquid chromatography mass spectrometry.
Where a compound was tested multiple times, the average value of the tests is reported.
Work on FC(F)c1cccn2nc(C3c4[nH]cnc4CCN3c3nnc(-c4ccccn4)o3)cc12 (stereo not shown) yielded an AC50 of 1000 to 5000 nM. Work on Cc1nnc(N2CCc3[nH]cnc3C2c2cc3cccc(C)n3n2)o1 (stereo not shown) yielded an AC50 of 1000 to 5000 nM. With Cc1cccn2nc(C3c4nc[nH]c4CCN3C(=O)c3ccnn3C(F)F)cc12 (stereo not shown) the AC50 was 1000 to 5000 nM. For Fc1cccc(-c2nnc(N3CCc4[nH]cnc4C3c3cc4ccccn4n3)o2)n1 (stereo not shown), the AC50 was 1000 to 5000 nM. In the case of Cc1ccn2nc(C3c4nc[nH]c4CCN3C(=O)c3nnc(C(C)(C)F)o3)cc2c1 (stereo not shown), the AC50 is reported as 1000 to 5000 nM.

Same assay, conditions: A375 cells expressing human PAH R408W; 24 hrs compound incubation; 13C-Tyrosine by LC-MS; average where tested multiple times; read-out: AC50
O=C(c1cnc(-c2ccccn2)o1)N1CCc2[nH]cnc2[C@H]1c1cc2c(F)cccn2n1 [Example 2032, (S)-(4-(4-fluoropyrazolo[1,5-a]pyridin-2-yl)-1,4,6,7-tetrahydro-5H-imidazo[4,5-c]pyridin-5-yl)(2-(pyridin-2-yl)oxazol-5-yl)methanone] was tested, and the AC50 was less than 500 nM. Cc1cccn2nc([C@@H]3c4nc[nH]c4CCN3C(=O)c3ocnc3C3CC3)cc12 [Example 1944, (S)-(4-cyclopropyloxazol-5-yl)(4-(4-methylpyrazolo[1,5-a]pyridin-2-yl)-1,4,6,7-tetrahydro-5H-imidazo[4,5-c]pyridin-5-yl)methanone] was tested, and the AC50 was less than 500 nM. In the case of O=C(c1nnc(C2CCC2)o1)N1CCc2[nH]cnc2[C@@H]1c1cc2cccc(C(F)(F)F)n2n1 [Example 2431, (R)-(5-cyclobutyl-1,3,4-oxadiazol-2-yl)(4-(7-(trifluoromethyl)pyrazolo[1,5-a]pyridin-2-yl)-6,7-dihydro-1H-imidazo[4,5-c]pyridin-5(4H)-yl)methanone], the AC50 is reported as 1000 to 5000 nM. In the case of Cc1cccn2nc([C@H]3c4nc[nH]c4CCN3c3ccccn3)cc12 [Example 2126, (R)-4-(4-methylpyrazolo[1,5-a]pyridin-2-yl)-5-(pyridin-2-yl)-4,5,6,7-tetrahydro-1H-imidazo[4,5-c]pyridine], the AC50 is reported as greater than 5000 nM. In the case of O=C(c1nnc(C2CC2)s1)N1CCc2[nH]cnc2[C@@H]1c1cc2c(F)cccn2n1 [Example 1992, (R)-(5-cyclopropyl-1,3,4-thiadiazol-2-yl)(4-(4-fluoropyrazolo[1,5-a]pyridin-2-yl)-1,4,6,7-tetrahydro-5H-imidazo[4,5-c]pyridin-5-yl)methanone], the AC50 is reported as greater than 5000 nM. Cc1ncccc1-c1nnc(N2CCc3[nH]cnc3[C@@H]2c2cc3cccc(C)n3n2)o1 [Example 2333, (R)-2-(4-(7-methylpyrazolo[1,5-a]pyridin-2-yl)-1,4,6,7-tetrahydro-5H-imidazo[4,5-c]pyridin-5-yl)-5-(2-methylpyridin-3-yl)-1,3,4-oxadiazole] showed an AC50 greater than 5000 nM. Compound O=C(c1cnc(-c2cnccn2)o1)N1CCc2[nH]cnc2[C@H]1c1cc2c(F)cccn2n1 [Example 2516, (S)-(4-(4-fluoropyrazolo[1,5-a]pyridin-2-yl)-1,4,6,7-tetrahydro-5H-imidazo[4,5-c]pyridin-5-yl)(2-(pyrazin-2-yl)oxazol-5-yl)methanone] has an AC50 of 1000 to 5000 nM. O=C(c1nc2ccccc2o1)N1CCc2[nH]cnc2[C@@H]1c1cc2c(C(F)F)cccn2n1 [Example 2053, (R)-benzo[d]oxazol-2-yl(4-(4-(difluoromethyl)pyrazolo[1,5-a]pyridin-2-yl)-1,4,6,7-tetrahydro-5H-imidazo[4,5-c]pyridin-5-yl)methanone] was tested, and the AC50 was greater than 5000 nM.

Same assay, conditions: A375 cells expressing human R408W PAH; 24 hrs compound incubation; 13C-Tyrosine by LC-MS; average where tested multiple times; read-out: AC50
Work on COCCc1ccc2c(C(=O)N3CCc4[nH]cnc4[C@H]3c3cc4c(C(F)(F)F)cccn4n3)cnn2c1 [Example 1784, (S)-(6-(2-methoxyethyl)pyrazolo[1,5-a]pyridin-3-yl)(4-(4-(trifluoromethyl)pyrazolo[1,5-a]pyridin-2-yl)-1,4,6,7-tetrahydro-5H-imidazo[4,5-c]pyridin-5-yl)methanone] yielded an AC50 of 500 to 1000 nM. For Cc1ccc2c(C(=O)N3CCc4[nH]cnc4[C@H]3c3cc4c(F)cccn4n3)cnn2c1 [Example 1670, (S)-(4-(4-fluoropyrazolo[1,5-a]pyridin-2-yl)-6,7-dihydro-1H-imidazo[4,5-c]pyridin-5(4H)-yl)(6-methylpyrazolo[1,5-a]pyridin-3-yl)methanone], the AC50 was 500 to 1000 nM. In the case of O=C(c1cncs1)N1CCc2[nH]cnc2[C@H]1c1cc2ccccn2n1 [Example 602, (S)-(4-(pyrazolo[1,5-a]pyridin-2-yl)-6,7-dihydro-1H-imidazo[4,5-c]pyridin-5(4H)-yl)(thiazol-5-yl)methanone], the AC50 is reported as less than 500 nM. O=C(c1nnc(-c2ccc(F)cc2F)o1)N1CCc2[nH]cnc2[C@@H]1c1cc2ccccn2n1 [Example 653, (R)-(5-(2,4-difluorophenyl)-1,3,4-oxadiazol-2-yl)(4-(pyrazolo[1,5-a]pyridin-2-yl)-6,7-dihydro-1H-imidazo[4,5-c]pyridin-5(4H)-yl)methanone] was tested, and the AC50 was greater than 5000 nM. In the case of O=C(c1nnc(-c2ccccn2)o1)N1CCc2[nH]cnc2[C@@H]1c1cc2ccc(F)cn2n1 [Example 1091, (R)-(4-(6-fluoropyrazolo[1,5-a]pyridin-2-yl)-6,7-dihydro-1H-imidazo[4,5-c]pyridin-5(4H)-yl)(5-(pyridin-2-yl)-1,3,4-oxadiazol-2-yl)methanone], the AC50 is reported as greater than 5000 nM. O=C(c1nnc(-c2ncccc2F)o1)N1CCc2[nH]cnc2[C@H]1c1cc2c(Cl)cccn2n1 [Example 1295, (S)-(4-(4-chloropyrazolo[1,5-a]pyridin-2-yl)-6,7-dihydro-1H-imidazo[4,5-c]pyridin-5(4H)-yl)(5-(3-fluoropyridin-2-yl)-1,3,4-oxadiazol-2-yl)methanone] gave an AC50 of less than 500 nM. For Cn1nccc1C(=O)N1CCc2[nH]cnc2[C@@H]1c1cc2ccccn2n1 [Example 661, (R)-(1-methyl-1H-pyrazol-5-yl)(4-(pyrazolo[1,5-a]pyridin-2-yl)-6,7-dihydro-1H-imidazo[4,5-c]pyridin-5(4H)-yl)methanone], the AC50 was greater than 5000 nM. O=C(c1nnc(-c2ccn(C(F)F)n2)o1)N1CCc2[nH]cnc2[C@@H]1c1cc2cccc(F)n2n1 [Example 1404, (R)-(5-(1-(difluoromethyl)-1H-pyrazol-3-yl)-1,3,4-oxadiazol-2-yl)(4-(7-fluoropyrazolo[1,5-a]pyridin-2-yl)-6,7-dihydro-1H-imidazo[4,5-c]pyridin-5(4H)-yl)methanone] gave an AC50 of 1000 to 5000 nM. O=C(c1cnn2cc(C3CC3)ccc12)N1CCc2[nH]cnc2[C@H]1c1cc2c(C(F)F)cccn2n1 [Example 1742, (S)-(6-cyclopropylpyrazolo[1,5-a]pyridin-3-yl)(4-(4-(difluoromethyl)pyrazolo[1,5-a]pyridin-2-yl)-6,7-dihydro-1H-imidazo[4,5-c]pyridin-5(4H)-yl)methanone] was tested, and the AC50 was less than 500 nM. Cc1ncccc1-c1nnc(C(=O)N2CCc3[nH]cnc3[C@H]2c2cc3cccc(C)n3n2)o1 [Example 1358, (S)-(4-(7-methylpyrazolo[1,5-a]pyridin-2-yl)-6,7-dihydro-1H-imidazo[4,5-c]pyridin-5(4H)-yl)(5-(2-methylpyridin-3-yl)-1,3,4-oxadiazol-2-yl)methanone] was tested, and the AC50 was less than 500 nM. In the case of Cc1ccc2cc([C@@H]3c4nc[nH]c4CCN3C(=O)c3cnco3)nn2c1 [Example 1187, (S)-(4-(6-methylpyrazolo[1,5-a]pyridin-2-yl)-6,7-dihydro-1H-imidazo[4,5-c]pyridin-5(4H)-yl)(oxazol-5-yl)methanone], the AC50 is reported as 1000 to 5000 nM.

Same assay, conditions: AC50, A375 cells expressing human PAH R408W; 24 hrs compound incubation; 13C-Tyrosine by LC-MS; average where tested multiple times
CC(C)c1cccn2nc([C@@H]3c4nc[nH]c4CCN3c3nnc(C4CC(F)(F)C4)o3)cc12 [Example 2519, (S)-2-(3,3-difluorocyclobutyl)-5-(4-(4-isopropylpyrazolo[1,5-a]pyridin-2-yl)-1,4,6,7-tetrahydro-5H-imidazo[4,5-c]pyridin-5-yl)-1,3,4-oxadiazole] was tested, and the AC50 was 1000 to 5000 nM.
